Key:
ALK-wt = biological target: T1, ALK-wt (Homo sapiens, UniProt Q9UM73); assay: Biochemical kinase assay, ALK-wt kinase domain; settings: apparent inhibitory constant, Morrison equation; ATP 2 mM in substrate solution; read-out: ALK-wt Ki^app
T1 construct: purchased Carna 08-518
Outline: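 Apparent Ki values come from fitting initial reaction rates against inhibitor concentration to the Morrison equation. Rates were taken from the linear phase of fluorogenic substrate phosphorylation (AQT0101 for ALK and ROS1, AQT0104 for TRKA; 26 μM in substrate solution with 2 mM ATP), monitored at 485 nm over 120 min at 30° C.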

ALK L1196M/G1202R = biological target: T2, ALK L1196M/G1202R (Homo sapiens, UniProt Q9UM73, G1202R/L1196M); assay: Biochemical kinase assay, ALK L1196M/G1202R kinase domain; settings: apparent inhibitory constant, Morrison equation; ATP 2 mM in substrate solution; read-out: ALK-L1196M-G1202R Ki^app
T2 construct: purchased SignalChem A19-12NG
Outline: (§1)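 Kinase domains (in kinase solution: ROS1-G2032R 0.5 nM, ROS1-wt 0.6 nM, TRKA 1 nM, ALK L1196M/G1202R 3 nM) were mixed with compound and a substrate solution of 2 mM ATP plus 26 μM fluorogenic AQT0101 (ALK, ROS1) or AQT0104 (TRKA) in HEPES pH 7.5/MgCl2. Fluorescence was followed for 120 min at 30° C; Ki^app was obtained by Morrison fit of initial rates.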

ROS1-wt = biological target: T3, ROS1-wt (Homo sapiens, UniProt P08922); assay: Biochemical kinase assay, ROS1-wt kinase domain; settings: apparent inhibitory constant, Morrison equation; ATP 2 mM in substrate solution; read-out: ROS1-wt Ki^app
T3 construct: purchased Carna 08-163
Outline: (§2)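 Compounds, as 100-fold DMSO stocks, were dispensed first, then substrate mix was added (ATP 2 mM, AQT0101 26 μM, in 50 mM HEPES pH 7.5/10 mM MgCl2). Reactions ran at 30 °C with fluorescence logged every 2 min over 120 min. Apparent inhibition constants came from fitting rates to Morrison's tight-binding equation.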

ROS1-G2032R = biological target: T4, ROS1-G2032R (Homo sapiens, UniProt P08922, G2032R); assay: Biochemical kinase assay, ROS1-G2032R kinase domain; settings: apparent inhibitory constant, Morrison equation; ATP 2 mM in substrate solution; read-out: ROS1-G2032R Ki^app
T4 construct: purchased SignalChem R14-12BG
Outline: as §2

TRKA-wt = biological target: T5, TRKA-wt (Homo sapiens, UniProt P04629); assay: Biochemical kinase assay, TRKA-wt kinase domain; settings: apparent inhibitory constant, Morrison equation; ATP 2 mM in substrate solution; read-out: TRKA-wt Ki^app
T5 construct: or TRKA-wt (1 nM, BPS Bio, 40280) kinase domains in buffer; purchased BPS Bio 40280
Outline: as §1

[1] = biological target: T6, Ba/F3 cells CD74-ROS1 wild-type (wt) (Homo sapiens, UniProt P08922); assay: Ba/F3 cell proliferation assay, CD74-ROS1 wild-type; format: cell-based; settings: 72 hours, CellTiter-Glo
T6 construct: fusion of the C-terminus of ROS1 with the N-terminus of various partner proteins; host or cells: Ba/F3 (RIKEN), retroviral pMSCV-puro; the other entry of the earlier key: CD74 (P04233, HLA class II histocompatibility antigen gamma chain)
Outline: (§3)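 IL-3-independent Ba/F3 CD74-ROS1 lines, puromycin-selected monoclones; 1,000 cells/well, plated 1 d before dosing; 3-fold serial dilutions, 72 h; CellTiter-Glo luminescence; IC50 by 4-parameter logistic regression.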

[2] = biological target: T7, Ba/F3 cells CD74-ROS1 G2032R (Homo sapiens, UniProt P08922, G2032R); assay: Ba/F3 cell proliferation assay, CD74-ROS1 G2032R; format: cell-based; settings: 72 hours, CellTiter-Glo
T7 construct: fusion of the C-terminus of ROS1 with the N-terminus of various partner proteins; host or cells: Ba/F3 (RIKEN), retroviral pMSCV-puro; the other entry of the earlier key: CD74 (P04233, HLA class II histocompatibility antigen gamma chain)
Outline: as §3

[3] = biological target: T8, Ba/F3 cells EML4-ALK wt (variant 1) (Homo sapiens, UniProt Q9UM73); assay: Ba/F3 cell proliferation assay, EML4-ALK wt (variant 1); format: cell-based; settings: 72 hours, CellTiter-Glo
T8 construct: echinoderm microtubule-associated protein-like 4 (EML4) gene and the ALK tyrosine kinase domain; host or cells: Ba/F3 (RIKEN), retroviral pMSCV-puro; the other entry of the earlier key: EML4 (Q9HC35, Echinoderm microtubule-associated protein-like 4)
Outline: (§4)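 IL-3-independent Ba/F3 lines stably expressing the fusion kinase (retroviral, puromycin-selected), 1,000 cells/well, treated with 3-fold compound dilutions for 72 h. Viability by CellTiter-Glo luminescence; IC50 from four-parameter logistic fit of percent inhibition.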

[4] = biological target: T9, Ba/F3 cells EML4-ALK L1196M/G1202R (variant 1) (Homo sapiens, UniProt Q9UM73, G1202R/L1196M); assay: Ba/F3 cell proliferation assay, EML4-ALK L1196M/G1202R (variant 1); format: cell-based; settings: 72 hours, CellTiter-Glo
T9 construct: echinoderm microtubule-associated protein-like 4 (EML4) gene and the ALK tyrosine kinase domain; host or cells: Ba/F3 (RIKEN), retroviral pMSCV-puro; the other entry of the earlier key: EML4 (Q9HC35, Echinoderm microtubule-associated protein-like 4)
Outline: as §4

Ba/F3 cells TPM3-TRKA = biological target: T10, Ba/F3 cells TPM3-TRKA (Homo sapiens, UniProt P04629); assay: Ba/F3 cell proliferation assay, TPM3-TRKA; format: cell-based; settings: 72 hours, CellTiter-Glo, read-out: TPM3-NTRK1-wt IC50
T10 construct: host or cells: Ba/F3 (RIKEN), retroviral pMSCV-puro; the other entry of the earlier key: TPM3 (P06753, Tropomyosin alpha-3 chain)
Outline: as §4

[5] = system: TPM3-NTRK1-wt IC50 / primary target IC50 (e.g. CD74-ROS1-wt); assay: TRKA selectivity in Ba/F3 cells (TRKA potency divided by primary target potency); format: cell-based; settings: for TPM3-NTRK1-wt/CD74-ROS1-G2032R selectivity ratio: TRKA potency / CD74-ROS1-G2032R potency; for TPM3-NTRK1-wt/CD74-ROS1-wt selectivity ratio: TRKA potency / CD74-ROS1-wt potency; for TPM3-NTRK1-wt/EML4-ALK-L1196M-G1202R selectivity ratio: TRKA potency / EML4-ALK-L1196M-G1202R potency; for TPM3-NTRK1-wt/EML4-ALK-wt selectivity ratio: TRKA potency / EML4-ALK-wt potency
Procedure: TRKA selectivity was calculated by dividing a compound's TRKA potency by its primary target potency (e.g. TPM3-NTRK1-wt IC50/CD74-ROS1-wt IC50). Compound selectivity can be interpreted by binning ratio values: bin A for very high selectivity, ratio >30-fold; bin B for high selectivity, ratio >10-fold; bin C for moderate selectivity, ratio ≥1; and bin D for low selectivity, ratio <1. […] (nd=not determined).

T4 sequence (P08922 1945-2222 G2032R limits assumed): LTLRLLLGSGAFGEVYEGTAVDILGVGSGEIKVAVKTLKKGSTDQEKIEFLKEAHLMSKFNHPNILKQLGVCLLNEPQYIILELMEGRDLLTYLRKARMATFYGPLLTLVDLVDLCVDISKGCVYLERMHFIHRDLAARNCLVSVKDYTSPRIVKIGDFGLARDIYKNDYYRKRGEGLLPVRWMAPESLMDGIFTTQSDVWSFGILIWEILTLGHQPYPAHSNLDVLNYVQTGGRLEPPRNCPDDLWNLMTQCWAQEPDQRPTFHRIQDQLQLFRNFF
T5 sequence (P04629 510-781 limits assumed): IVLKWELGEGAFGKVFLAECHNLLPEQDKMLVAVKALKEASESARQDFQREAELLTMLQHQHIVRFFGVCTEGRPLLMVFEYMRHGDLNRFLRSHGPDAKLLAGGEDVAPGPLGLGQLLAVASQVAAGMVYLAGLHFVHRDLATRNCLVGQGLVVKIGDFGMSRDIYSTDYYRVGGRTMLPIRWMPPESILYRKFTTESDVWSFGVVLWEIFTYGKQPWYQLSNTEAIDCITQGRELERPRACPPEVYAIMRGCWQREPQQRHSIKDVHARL
T10 sequence (P04629 510-796 limits assumed): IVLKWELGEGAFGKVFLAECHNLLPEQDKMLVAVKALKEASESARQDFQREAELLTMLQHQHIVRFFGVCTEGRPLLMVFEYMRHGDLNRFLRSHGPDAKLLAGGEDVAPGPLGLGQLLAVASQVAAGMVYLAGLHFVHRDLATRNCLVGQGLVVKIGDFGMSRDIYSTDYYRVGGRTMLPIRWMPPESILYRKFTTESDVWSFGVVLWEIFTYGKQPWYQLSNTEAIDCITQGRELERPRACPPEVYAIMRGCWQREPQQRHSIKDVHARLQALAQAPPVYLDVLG
T7 sequence (P08922 1883-2347 G2032R limits assumed): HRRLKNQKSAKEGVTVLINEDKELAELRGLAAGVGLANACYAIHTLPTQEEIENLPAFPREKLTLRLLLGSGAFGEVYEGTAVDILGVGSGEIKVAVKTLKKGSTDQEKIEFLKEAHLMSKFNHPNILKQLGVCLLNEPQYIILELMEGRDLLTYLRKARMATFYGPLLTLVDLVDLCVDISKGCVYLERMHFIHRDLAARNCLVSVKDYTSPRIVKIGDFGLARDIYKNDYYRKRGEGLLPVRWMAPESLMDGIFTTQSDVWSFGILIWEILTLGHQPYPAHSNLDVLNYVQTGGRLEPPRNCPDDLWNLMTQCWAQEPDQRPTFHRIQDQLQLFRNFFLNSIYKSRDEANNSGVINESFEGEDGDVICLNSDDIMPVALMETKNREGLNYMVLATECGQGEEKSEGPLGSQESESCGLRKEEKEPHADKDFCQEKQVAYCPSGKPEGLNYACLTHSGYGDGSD
T9 sequence (Q9UM73 with tags, fused parts or gaps L1196M/G1202R): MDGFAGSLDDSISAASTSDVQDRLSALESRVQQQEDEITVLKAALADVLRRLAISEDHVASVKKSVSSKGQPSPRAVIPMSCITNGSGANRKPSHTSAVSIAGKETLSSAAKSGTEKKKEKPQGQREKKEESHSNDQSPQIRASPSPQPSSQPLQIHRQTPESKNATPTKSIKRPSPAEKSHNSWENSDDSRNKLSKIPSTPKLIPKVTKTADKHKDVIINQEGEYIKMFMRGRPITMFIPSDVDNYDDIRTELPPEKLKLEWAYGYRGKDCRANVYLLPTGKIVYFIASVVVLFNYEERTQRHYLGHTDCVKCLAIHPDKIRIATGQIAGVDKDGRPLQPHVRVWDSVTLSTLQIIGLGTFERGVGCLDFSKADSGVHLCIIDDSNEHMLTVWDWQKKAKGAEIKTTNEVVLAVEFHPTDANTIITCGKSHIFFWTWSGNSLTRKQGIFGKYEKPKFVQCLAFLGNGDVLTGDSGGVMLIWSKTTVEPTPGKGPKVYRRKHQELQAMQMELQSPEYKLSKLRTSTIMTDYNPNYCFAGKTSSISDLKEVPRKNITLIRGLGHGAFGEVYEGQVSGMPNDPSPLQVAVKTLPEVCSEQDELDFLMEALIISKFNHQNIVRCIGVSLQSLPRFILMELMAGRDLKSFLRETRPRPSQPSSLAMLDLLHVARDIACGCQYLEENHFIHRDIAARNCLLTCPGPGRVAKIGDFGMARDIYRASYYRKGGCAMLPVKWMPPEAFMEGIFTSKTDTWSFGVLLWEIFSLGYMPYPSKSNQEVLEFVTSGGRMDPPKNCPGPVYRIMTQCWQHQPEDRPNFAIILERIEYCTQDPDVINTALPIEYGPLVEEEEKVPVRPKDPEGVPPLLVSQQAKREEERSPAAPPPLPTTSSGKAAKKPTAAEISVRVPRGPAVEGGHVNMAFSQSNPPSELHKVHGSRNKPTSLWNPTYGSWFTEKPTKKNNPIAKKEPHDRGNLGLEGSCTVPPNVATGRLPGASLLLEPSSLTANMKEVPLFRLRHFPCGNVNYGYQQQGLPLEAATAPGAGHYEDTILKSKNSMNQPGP
T6 sequence (P08922 1883-2347 limits assumed): as the sequence (P08922 1883-2347 G2032R limits assumed) above, with R150G counted along it
T2 sequence (Q9UM73 1116-1392 L1196M/G1202R limits assumed): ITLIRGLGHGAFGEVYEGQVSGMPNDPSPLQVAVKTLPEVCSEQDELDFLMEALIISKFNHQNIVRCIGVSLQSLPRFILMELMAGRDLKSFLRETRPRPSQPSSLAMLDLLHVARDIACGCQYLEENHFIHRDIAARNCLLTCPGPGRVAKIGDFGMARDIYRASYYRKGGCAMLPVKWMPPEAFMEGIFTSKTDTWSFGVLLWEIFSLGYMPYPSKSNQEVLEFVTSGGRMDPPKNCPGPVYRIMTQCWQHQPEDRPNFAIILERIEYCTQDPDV
T8 sequence (Q9UM73 with tags, fused parts or gaps): as the sequence (Q9UM73 with tags, fused parts or gaps L1196M/G1202R) above, with M635L, R641G counted along it
T1 sequence (Q9UM73 1116-1392 limits assumed): as the sequence (Q9UM73 1116-1392 L1196M/G1202R limits assumed) above, with M81L, R87G counted along it
T3 sequence (P08922 1945-2222 limits assumed): as the sequence (P08922 1945-2222 G2032R limits assumed) above, with R88G counted along it

Ki (ALK-wt) [nM]	Ki (ALK L1196M/G1202R) [nM]	Ki (ROS1-wt) [nM]	Ki (ROS1-G2032R) [nM]	Ki (TRKA-wt) [nM]	IC50 [1] [nM]	IC50 [2] [nM]	IC50 [3] [nM]	IC50 [4] [nM]	IC50 (Ba/F3 cells TPM3-TRKA) [nM]	Structure (SMILES)	TPM3-NTRK1-wt/CD74-ROS1-G2032R selectivity ratio [5]	TPM3-NTRK1-wt/CD74-ROS1-wt selectivity ratio [5]	TPM3-NTRK1-wt/EML4-ALK-L1196M-G1202R selectivity ratio [5]	TPM3-NTRK1-wt/EML4-ALK-wt selectivity ratio [5]
< 50	50 to 500	< 50	> 500	> 500	0.1 to 50	> 500	0.1 to 50	> 500	> 500	Cc1nn(CC(C)C)c2c1Cn1ncnc1-c1ccc(F)cc1[C@@H](C)Oc1cc-2cnc1N [Example 79, (19R)-16-fluoro-5,19-dimethyl-3-(2-methylpropyl)-20-oxa-3,4,8,9,11,23-hexaazapentacyclo [19.3.1.0^2,^6.0^8,^12.0^13,^18]pentacosa-1(2.4),2(6),4,9,11,13,15,17,21(25),22-decaen-22-amine]	B (bin B for high selectivity, ratio >10-fold)	A (bin A for very high selectivity, ratio >30-fold)	C (bin C for moderate selectivity, ratio ≥1)	A (bin A for very high selectivity, ratio >30-fold)
< 50	50 to 500	< 50	50 to 500	> 500	0.1 to 50	0.1 to 50	50 to 500	> 500	> 500	CCn1nc(C(F)(F)F)c2c1-c1cnc(N)c(c1)O[C@H](C)c1cc(F)ccc1-c1nn(C)nc1C2 [Example 80, (19R)-3-ethyl-16-fluoro-10,19-dimethyl-5-(trifluoromethyl)-20-oxa-3,4,9,10,11,23-hexaazapentacyclo[19.3.1.0^2,^6.0^8,^12.0^13,^18]pentacosa-1(24),2(6),4,8,11,13,15,17,21(25),22-decaen-22-amine]	A (bin A for very high selectivity, ratio >30-fold)	A (bin A for very high selectivity, ratio >30-fold)	C (bin C for moderate selectivity, ratio ≥1)	B (bin B for high selectivity, ratio >10-fold)
< 50	< 50	< 50	< 50	> 500	0.1 to 50	0.1 to 50	0.1 to 50	50 to 500	> 500	Cc1nn(CC2CC2)c2c1Cc1nn(C)nc1-c1c(F)cc(F)cc1[C@@H](C)Oc1cc-2cnc1N [Example 82, (19R)-3-(cyclopropylmethyl)-14,16-difluoro-5,10,19-trimethyl-20-oxa3,4,9,10,11,23-hexaazapentacyclo[19.3.1.0^2,^6.0^8,^12.0^13,^18]pentacosa 1(24),2(6),4,8,11,13,15,17,21(25),22-decaen-22-amine]	A (bin A for very high selectivity, ratio >30-fold)	A (bin A for very high selectivity, ratio >30-fold)	A (bin A for very high selectivity, ratio >30-fold)	A (bin A for very high selectivity, ratio >30-fold)
< 50	< 50	< 50	< 50	> 500	0.1 to 50	0.1 to 50	0.1 to 50	50 to 500	50 to 500	C[C@H]1Oc2cc(cnc2N)-c2c(cnn2C2COC2)Cc2nn(C)nc2-c2ccc(F)cc21 [Example 83, (19R)-16-fluoro-10,19-dimethyl-3-(oxetan-3-yl)-20-oxa-3,4,9,10,11,23-hexaazapentacyclo[19.3.1.0^2,^6.0^8,^12.0^13,^18]pentacosa-1(24),2(6),4,8,11,13,15,17,21(25),22-decaen-22-amine]	A (bin A for very high selectivity, ratio >30-fold)	A (bin A for very high selectivity, ratio >30-fold)	C (bin C for moderate selectivity, ratio ≥1)	A (bin A for very high selectivity, ratio >30-fold)
< 50	< 50	< 50	< 50	> 500	0.1 to 50	0.1 to 50	50 to 500	50 to 500	> 500	CCn1nc(Cl)c2c1-c1cnc(N)c(c1)O[C@H](C)c1cc(F)ccc1-c1oc(C)nc1C2 [Example 84, (19R)-5-chloro-3-ethyl-16-fluoro-10,19-dimethyl-11,20-dioxa-3,4,9,23-tetraazapentacyclo[19.3.1.0^2,^6.0^8,^12.0^13,^18]pentacosa-1(24),2(6),4,8(12),9,13,15,17,21(25),22-decaen-22-amine]	A (bin A for very high selectivity, ratio >30-fold)	A (bin A for very high selectivity, ratio >30-fold)	C (bin C for moderate selectivity, ratio ≥1)	B (bin B for high selectivity, ratio >10-fold)
< 50	< 50	< 50	< 50	> 500	0.1 to 50	0.1 to 50	0.1 to 50	0.1 to 50	> 500	C[C@H]1Oc2cc(cnc2N)-c2c(c(Cl)nn2CC2CC2)Cc2nn(C)nc2-c2ccc(F)cc21 [Example 85, (19R)-5-chloro-3-(cyclopropylmethyl)-16-fluoro-10,19-dimethyl-20-oxa-3,4,9,10,11,23-hexaazapentacyclo [19.3.1.0^2,^6.0^8,^12.0^13,^18]pentacosa-1(24),2(6),4,8,11,13,15,17,21(25),22-decaen-22-amine]	A (bin A for very high selectivity, ratio >30-fold)	A (bin A for very high selectivity, ratio >30-fold)	A (bin A for very high selectivity, ratio >30-fold)	A (bin A for very high selectivity, ratio >30-fold)

Reference: patent US12054498B2, “Heteroaromatic macrocyclic ether chemotherapeutic agents” (Nuvalent, Inc., priority 2020, dated 2024)
